Measured values published in patent publication US5599663A, “Angiotensin IV and analogs as regulators of fibrinolysis” (Brighan & Women's Hospital, priority 1993, dated 1997).

Experiments:
[1] = tested on: bovine aortic endothelial cells receptor for Ang II; experiment: Binding of ^125 I-Ang II to cultured bovine aortic endothelial cells
Excerpt: We first studied the role of angiotensin (Ang) II in the regulation of endothelial fibrinolysis, by determining if Ang II binds to the target cell, which in this case was bovine aortic endothelial cells. In these experiments, we used early passage bovine aortic endothelial cells (P2-4) grown to confluence in DMEM supplemented with penicillin, streptomycin, and 10% newborn calf serum.
To test whether the Ang II receptor on the bovine aortic endothelial cells is similar or identical to the classic AT1 receptor, we measured the potency of the antagonist saralasin for binding.

t-PA [2] = experiment: t-PA antigen or activity in conditioned media of bovine aortic endothelial cells; format: cell-based
PAI-1 [3] = experiment: PAI-1 secretion into conditioned media of bovine aortic endothelial cells (ELISA; activity); format: cell-based
Description: FIG. 6 is a dose response curve of PAI-1 secretion into the conditioned media of bovine aortic endothelial cells following exposure to Ang II.
In these experiments, we investigated the effects of Ang II on the secretion of PAI-1 into the media of cultured endothelial cells. […] Ang II (in the concentrations indicated) was added to washed, confluent cultures of bovine aortic endothelial cells, and the conditioned media was removed for assay after 18 hour. Levels of PAI-1 antigen in the media were determined using a specific ELISA for PAI-1, such as the assay described in DeClerk et al., Blood (1988) 71:220-225, or the assay sold by Biopool, AB, Umea, Sweden.
(§1) The increases in PAI-1 activity and antigen observed thus far have been associated with an approximate 4-fold increase in PAI-1 message (FIGS. 7 and 8). The cells for these experiments were incubated for 8 hour in fresh serum-free media containing the indicated concentrations of Ang II. Total RNA was extracted and analyzed by Northern blotting.

PAI-1 [4] = experiment: Plasma PAI-1 during graded infusions in rabbits; format: in vivo, New Zealand White rabbits; conditions: for effect on plasma PAI-1 levels: graded infusions, healthy rabbits
Excerpt: FIG. 12 is a graph of the mean plasma PAI-1 activity at baseline and after increasing doses of Ang II alone, Ang IV alone, saline, and Ang II in rabbits pretreated with amastatin. Error bars represent SEM.
(§2) We have also undertaken a series of experiments designed to identify the specific form of angiotensin that is responsible for the increased plasma PAI-1 levels seen in our human studies. We examined the effects of graded infusions of Ang II and Ang IV on blood pressure and plasma PAI activity in healthy New Zealand White rabbits.

[5] = Mean blood pressure during graded infusions in rabbits; format: in vivo, New Zealand White rabbits; conditions: for effect on mean blood pressure: graded infusions, healthy rabbits
Excerpt: FIG. 11 is a graph of the mean BP at baseline and after increasing doses of Ang II alone, Ang IV alone, saline, and Ang II in rabbits pretreated with amastatin. Error bars represent SEM.
as §2

PAI-1 mRNA = PAI-1 mRNA induction in bovine aortic endothelial cells (Northern / slot blot); format: cell-based; conditions: for effect on Ang II stimulation of PAI-1 mRNA levels: antagonist 1 μM
Description: FIG. 7 is a Northern blot showing the induction of PAI-1 RNA after treatment of bovine aortic endothelial cells with angiotensin II.
FIG. 8 is a graph showing the dose response of PAI-1 RNA induction by Ang II.
FIG. 9 is a Northern blot showing the time course of induction of PAI-1 RNA after treatment of bovine aortic endothelial cells with 20 nM angiotensin II.
FIG. 10 is a graph showing the PAI-1 mRNA levels as a function of time, in bovine aortic endothelial cells treated with 20 nM angiotensin II.
as §1
Ang II is also associated with a time-dependent increase in PAI-1 mRNA that peaks 6-8 hrs after exposure to Ang II, as assessed by Northern blot analysis (FIG. 9). Confluent cultures of bovine aortic endothelial cells were incubated with 20 nM Ang II in serum-free DMEM. Total cytoplasmic RNA was extracted at the indicated times and analyzed by Northern blotting (FIG. 9). The results corresponding to the 3.3-kb PAI-1 mRNA species were quantified by transmission densitometry. To control for variability in gel loading, the blots were stripped and rehybridized with a cDNA probe for β-actin. Normalized data are plotted in the FIG. 10.

PAI-1 [6] = experiment: Plasma PAI-1 during Ang II infusion in human volunteers; format: in vivo
Description: (§3) Second, this binding appears to have a functional effect on bovine aortic endothelial cells in inducing the synthesis of PAI-1 message and the secretion of PAI-1 into the conditioned media. Importantly, we have observed increased levels of PAI-1 mRNA induced by physiologically relevant doses of Ang II (i.e. 0.1 nM). The potential significance of these in vitro findings are supported by recent data obtained during the infusion of Ang II into healthy human volunteers. In these studies, normotensive volunteers (N=4) received an infusion of Ang II in graded doses of 1.0, 3.0. and 10.0 ng/kg/min., while 4 additional normotensive volunteers received an infusion of D5W. Plasma levels of t-PA and PAI-1 were measured prior to and at the conclusion of each dose. […] Similar findings have been obtained in an additional group of hypertensive volunteers (N=6) that received a constant infusion of Ang II (3 ng/kg/min) over a 45 min period. In these individuals, we observed a 60% increase in plasma PAI-1 compared with pretreatment levels (p<0.04).

t-PA [7] = experiment: Plasma t-PA during Ang II infusion in human volunteers; format: in vivo
Description: as §3

AT1 receptor = conditions: well established property of the AT1 receptor; cited from earlier work
[8] = Ang II after pretreatment with amastatin

O[C@H](CS)[C@H](O)CS (relative stereo) [DTT]
reduction in total binding ([1]; 5 mM DTT, ^125 I-Ang II (0.27 nM)): 50%

CC[C@H](C)[C@H](NC(=O)[C@H](Cc1ccc(O)cc1)NC(=O)[C@@H](NC(=O)[C@H](CCCNC(=N)N)NC(=O)[C@@H](N)CC(=O)O)C(C)C)C(=O)N[C@@H](Cc1cnc[nH]1)C(=O)N1CCC[C@H]1C(=O)N[C@@H](Cc1ccccc1)C(=O)O [Ang II, angiotensin II]
effect on t-PA antigen or activity in conditioned media (t-PA [2]): not observed a similar increase in t-PA antigen or activity | effect on secretion of PAI-1 into media (PAI-1 [3]; 18 hour exposure, PAI-1 antigen ELISA): induce the secretion of PAI-1 in a dose-dependent manner | EC50 (PAI-1 [3]; PAI-1 antigen in conditioned media, 18 hour): ~20 nM | changes in PAI-1 activity (PAI-1 [3]; after reactivation of latent protein with guanidine hydrochloride): corresponding changes in PAI-1 activity | effect on plasma PAI-1 levels (PAI-1 [4]): dose-dependent increase in plasma PAI-1 levels | effect on mean blood pressure [5]: dose-dependent increase in mean blood pressure | concentration at which increased levels of PAI-1 mRNA were observed (PAI-1 mRNA): 0.1 nM | time of peak PAI-1 mRNA after exposure (PAI-1 mRNA; 20 nM Ang II, serum-free DMEM): 6 to 8 h | increase in PAI-1 message (PAI-1 mRNA; 8 hour, serum-free media, normalized to β-actin): ~4 fold | effect on PAI-1 secretion/response in normotensive volunteers (PAI-1 [6]; graded infusion 1.0, 3.0 and 10.0 ng/kg/min): increased in the subjects that received the Ang II infusions in a dose-dependent manner | increase in plasma PAI-1 compared with pretreatment (PAI-1 [6]; hypertensive volunteers (N=6), 3 ng/kg/min over 45 min, p<0.04): 60% | plasma PAI-1 level (PAI-1 [6]; normotensive volunteers (N=4), infusion graded 1.0, 3.0 and 10.0 ng/kg/min, from 14.7±5.3, mean±SEM, p<0.001 by ANOVA): 33.5±10.6 | plasma t-PA levels (t-PA [7]): plasma t-PA levels do not increase

CC[C@H](C)[C@H](NC(=O)[C@H](Cc1ccc(O)cc1)NC(=O)[C@@H](N)C(C)C)C(=O)N[C@@H](Cc1cnc[nH]1)C(=O)N1CCC[C@H]1C(=O)N[C@@H](Cc1ccccc1)C(=O)O [Ang IV, VAL-TYR-ILE-HIS-PRO-PHE]
effect on plasma PAI-1 levels (PAI-1 [4]): dose-dependent increase in plasma PAI-1 levels | effect on mean blood pressure [5]: stable mean BP

CCCCc1nc(Cl)c(CO)n1Cc1ccc(-c2ccccc2-c2nn[nH]n2)cc1 [Dup 753]
effect on Ang II stimulation of PAI-1 mRNA levels (PAI-1 mRNA): does not appear to be prevented

CC(C)C[C@@H](N)[C@H](O)C(=O)N[C@H](C(=O)N[C@H](C(=O)N[C@@H](CC(=O)O)C(=O)O)C(C)C)C(C)C [amastatin]
PAI-1 response, Ang II after amastatin pretreatment (PAI-1 [4]; [8]): PAI-1 response was reduced considerably | effect on mean blood pressure, Ang II after amastatin pretreatment [5, 8]: expected increases in blood pressure

CNCC(=O)N[C@@H](CCCN=C(N)N)C(=O)N[C@H](C(=O)N[C@@H](Cc1ccc(O)cc1)C(=O)N[C@H](C(=O)N[C@@H](Cc1cnc[nH]1)C(=O)N1CCC[C@H]1C(=O)N[C@@H](C)C(=O)O)C(C)C)C(C)C [saralasin, (Sar^1,Val^5,Ala^8)-angiotensin]
Ki (AT1 receptor): 0.4 nM | effect on Ang II stimulation of PAI-1 mRNA levels (PAI-1 mRNA): does not appear to be prevented

^125 I-Ang II: ^125 I labelled Ang II
character of binding to bovine aortic endothelial cells ([1]; FIG. 2): saturable and specific manner | Kd ([1]; Scatchard transformation of specific binding, room temperature, read-out: apparent Kd): ~2 nM | Bmax ([1]; Scatchard transformation, room temperature): 105 fmol/10^6 cells | time to binding equilibrium ([1]; room temperature): ≤ 45 min
